Laboratory results: patent US20090227607A1, “DEAZAPURINES USEFUL AS INHIBITORS OF JANUS KINASES” (priority 2006, published 2009)

How the values were obtained:
JAK3 = target: T1, JAK3 (Homo sapiens, UniProt P52333); assay: JAK3 Inhibition Assay; format: biochemical; details: 1 μM poly(Glu)4Tyr, 5 μM ATP, 1 nM JAK3, 25° C.; read-out: JAK3 enzyme inhibition data (Ki)
T1 sequence (P52333 1-1124): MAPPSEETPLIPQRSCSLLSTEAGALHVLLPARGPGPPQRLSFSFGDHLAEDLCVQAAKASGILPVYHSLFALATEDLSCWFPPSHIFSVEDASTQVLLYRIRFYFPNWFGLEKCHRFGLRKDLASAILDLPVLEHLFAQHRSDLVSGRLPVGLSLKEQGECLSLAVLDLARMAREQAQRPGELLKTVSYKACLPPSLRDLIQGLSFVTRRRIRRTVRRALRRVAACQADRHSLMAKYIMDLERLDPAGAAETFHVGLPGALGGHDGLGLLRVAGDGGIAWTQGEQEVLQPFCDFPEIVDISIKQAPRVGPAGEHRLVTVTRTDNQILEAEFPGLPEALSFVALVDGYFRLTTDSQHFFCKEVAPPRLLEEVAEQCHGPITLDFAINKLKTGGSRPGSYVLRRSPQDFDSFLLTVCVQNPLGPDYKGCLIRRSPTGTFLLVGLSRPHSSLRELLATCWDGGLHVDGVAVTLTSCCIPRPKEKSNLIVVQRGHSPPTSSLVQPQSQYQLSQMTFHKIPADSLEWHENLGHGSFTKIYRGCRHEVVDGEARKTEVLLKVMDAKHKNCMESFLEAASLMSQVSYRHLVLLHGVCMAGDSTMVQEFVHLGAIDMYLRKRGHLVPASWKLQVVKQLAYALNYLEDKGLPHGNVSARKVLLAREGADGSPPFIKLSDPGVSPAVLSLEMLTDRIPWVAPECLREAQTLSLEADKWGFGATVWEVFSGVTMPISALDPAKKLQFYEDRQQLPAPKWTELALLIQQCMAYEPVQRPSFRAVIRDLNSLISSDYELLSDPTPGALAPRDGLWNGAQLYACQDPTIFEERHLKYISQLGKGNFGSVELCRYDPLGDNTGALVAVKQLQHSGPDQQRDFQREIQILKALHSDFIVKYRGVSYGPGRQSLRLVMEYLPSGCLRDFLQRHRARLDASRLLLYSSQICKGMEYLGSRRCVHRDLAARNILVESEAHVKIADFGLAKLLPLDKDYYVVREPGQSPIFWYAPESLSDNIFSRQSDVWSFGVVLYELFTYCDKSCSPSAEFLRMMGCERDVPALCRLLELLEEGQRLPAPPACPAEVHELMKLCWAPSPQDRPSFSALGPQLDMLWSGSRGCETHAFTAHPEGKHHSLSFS
Procedure: (§1) Compounds were screened for their ability to inhibit JAK3 using the assay shown below. Reactions were carried out in a kinase buffer containing 100 mM HEPES (pH 7.4), 1 mM DTT, 10 mM MgCl2, 25 mM NaCl, and 0.01% BSA. Substrate concentrations in the assay were 5 μM ATP (200 uCi/μmole ATP) and 1 μM poly(Glu)4Tyr. Reactions were carried out at 25° C. and 1 nM JAK3.
(§2) To each well of a 96 well polycarbonate plate was added 1.5 μl of a candidate JAK3 inhibitor along with 50 μl of kinase buffer containing 2 μM poly(Glu)4Tyr and […]. This was then mixed and […] of kinase buffer containing 2 nM JAK3 enzyme was added to start the reaction. After 20 minutes at room temperature (25° C.), the reaction was stopped with 50 μl of 20% trichloroacetic acid (TCA) that also contained 0.4 mM ATP. The entire contents of each well were then transferred to a 96 well glass fiber filter plate using a TomTek Cell Harvester. After washing, 60 μl of scintillation fluid was added and ^33P incorporation detected on a Perkin Elmer TopCount.
(§3) Tables 5 and 6 depict enzyme inhibition data (Ki) for certain exemplary compounds. Compound numbers in Tables 5 and 6 correspond to those compounds depicted in Tables 1 and 2, respectively.

JAK-2 enzyme = JAK-2 enzyme (Homo sapiens, UniProt O60674); assay: JAK2 Inhibition Assay; format: biochemical; details: 15 μM poly(Glu)4Tyr, 12 μM ATP, 25° C.
Procedure: as §1, §2
The assays were as described above in Example 36 except that JAK-2 enzyme was used, the final poly(Glu)4Tyr concentration was 15 μM, and final ATP concentration was 12 μM.
as §3

Chain of JAK-2 enzyme (O60674 whole entry, species assumed): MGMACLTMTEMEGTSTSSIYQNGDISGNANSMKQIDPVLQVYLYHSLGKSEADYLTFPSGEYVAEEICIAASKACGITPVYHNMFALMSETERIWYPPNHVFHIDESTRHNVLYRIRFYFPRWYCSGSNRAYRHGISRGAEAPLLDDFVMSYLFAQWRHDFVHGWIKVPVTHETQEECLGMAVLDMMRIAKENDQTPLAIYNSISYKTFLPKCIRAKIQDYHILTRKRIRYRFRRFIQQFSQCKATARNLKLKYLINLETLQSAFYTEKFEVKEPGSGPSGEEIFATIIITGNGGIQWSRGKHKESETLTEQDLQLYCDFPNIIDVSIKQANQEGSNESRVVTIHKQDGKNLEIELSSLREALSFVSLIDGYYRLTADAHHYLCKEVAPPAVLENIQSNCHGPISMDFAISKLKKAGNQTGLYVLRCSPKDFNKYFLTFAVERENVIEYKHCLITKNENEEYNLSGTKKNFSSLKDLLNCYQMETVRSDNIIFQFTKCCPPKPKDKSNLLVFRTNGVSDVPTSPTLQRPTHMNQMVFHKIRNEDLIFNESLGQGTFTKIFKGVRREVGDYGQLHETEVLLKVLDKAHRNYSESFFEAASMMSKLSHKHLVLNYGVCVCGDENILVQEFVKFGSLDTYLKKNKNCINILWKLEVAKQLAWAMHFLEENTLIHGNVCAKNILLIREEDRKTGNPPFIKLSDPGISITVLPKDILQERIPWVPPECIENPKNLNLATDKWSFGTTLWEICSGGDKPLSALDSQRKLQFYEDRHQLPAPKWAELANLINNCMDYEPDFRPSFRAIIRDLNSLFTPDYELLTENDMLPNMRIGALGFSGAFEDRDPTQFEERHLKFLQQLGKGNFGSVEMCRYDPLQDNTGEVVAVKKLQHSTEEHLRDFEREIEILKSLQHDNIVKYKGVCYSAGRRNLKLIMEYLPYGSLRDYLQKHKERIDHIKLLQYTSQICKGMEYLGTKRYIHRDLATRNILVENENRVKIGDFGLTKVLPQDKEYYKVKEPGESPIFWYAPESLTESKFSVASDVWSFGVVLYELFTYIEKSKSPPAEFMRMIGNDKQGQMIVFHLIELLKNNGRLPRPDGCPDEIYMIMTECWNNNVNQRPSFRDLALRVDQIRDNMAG

Row | Ki (JAK3) | Ki (JAK-2 enzyme) | SMILES
1 | 100 to 500 nM | 100 to 500 nM | c1nc(-c2cn[nH]c2)c2cc[nH]c2n1 [Compound 5]
2 | 100 to 500 nM | < 100 nM | FC(F)(F)CCCn1cc(-c2ncnc3[nH]ccc23)cn1 [Compound 6]
3 | < 100 nM | < 100 nM | O=C(NCC(F)(F)F)c1cc(-c2ncnc3[nH]ccc23)c[nH]1 [Compound 7]
4 | 100 to 500 nM | < 100 nM | CCC(CC)NC(=O)c1cc(-c2ncnc3[nH]ccc23)c[nH]1 [Compound 11]
5 | 100 to 500 nM | < 100 nM | O=C(NC1CC1)c1cc(-c2ncnc3[nH]ccc23)c[nH]1 [Compound 12]
6 | 100 to 500 nM | < 100 nM | C#CCNC(=O)c1cc(-c2ncnc3[nH]ccc23)c[nH]1 [Compound 14]
7 | < 100 nM | < 100 nM | C=CCN(CC=C)C(=O)c1cc(-c2ncnc3[nH]ccc23)c[nH]1 [Compound 17]
8 | < 100 nM | < 100 nM | N#CCCN(Cc1cccnc1)C(=O)c1cc(-c2ncnc3[nH]ccc23)c[nH]1 [Compound 18]
9 | < 100 nM | < 100 nM | CCCN(CCC#N)C(=O)c1cc(-c2ncnc3[nH]ccc23)c[nH]1 [Compound 21]
10 | < 100 nM | < 100 nM | CCCCN(CCC#N)C(=O)c1cc(-c2ncnc3[nH]ccc23)c[nH]1 [Compound 22]
11 | 100 to 500 nM | < 100 nM | C#CCN(C)C(=O)c1cc(-c2ncnc3[nH]ccc23)c[nH]1 [Compound 24]
12 | < 100 nM | < 100 nM | CCCN(CCC)C(=O)c1cc(-c2ncnc3[nH]ccc23)c[nH]1 [Compound 26]
13 | 100 to 500 nM | < 100 nM | CC(C)CN(C)C(=O)c1cc(-c2ncnc3[nH]ccc23)c[nH]1 [Compound 27]
14 | 100 to 500 nM | < 100 nM | CC(C)CN(CC(C)C)C(=O)c1cc(-c2ncnc3[nH]ccc23)c[nH]1 [Compound 28]
15 | < 100 nM | < 100 nM | N#CCCN(Cc1ccccc1)C(=O)c1cc(-c2ncnc3[nH]ccc23)c[nH]1 [Compound 29]
16 | < 100 nM | < 100 nM | CC(C)n1cc(-c2ncnc3[nH]ccc23)cn1 [Compound 34]
17 | < 100 nM | < 100 nM | CCCC(CCC)n1cc(-c2ncnc3[nH]ccc23)cn1 [Compound 37]
18 | < 100 nM | < 100 nM | CCCC(C)n1cc(-c2ncnc3[nH]ccc23)cn1 (centres unmarked) [Compound 38]
19 | 500 to 5000 nM | 100 to 500 nM | O=C(c1cc(-c2ncnc3[nH]ccc23)c[nH]1)N1CCCC1CO (centres unmarked) [Compound 41]
20 | 500 to 5000 nM | 100 to 500 nM | O=C(c1cc(-c2ncnc3[nH]ccc23)c[nH]1)N1CCC(CO)CC1 [Compound 42]
21 | 500 to 5000 nM | 500 to 5000 nM | CCOC(=O)C1CCN(C(=O)c2cc(-c3ncnc4[nH]ccc34)c[nH]2)CC1 [Compound 43]
22 | 500 to 5000 nM | 500 to 5000 nM | O=C(c1cc(-c2ncnc3[nH]ccc23)c[nH]1)N1CCC(O)C1 (centres unmarked) [Compound 45]
23 | 100 to 500 nM | 100 to 500 nM | CN(CCc1ccccn1)C(=O)c1cc(-c2ncnc3[nH]ccc23)c[nH]1 [Compound 46]
24 | < 100 nM | < 100 nM | CCN(Cc1ccncc1)C(=O)c1cc(-c2ncnc3[nH]ccc23)c[nH]1 [Compound 48]
25 | 100 to 500 nM | < 100 nM | CN(Cc1cccnc1)C(=O)c1cc(-c2ncnc3[nH]ccc23)c[nH]1 [Compound 49]
26 | 500 to 5000 nM | 500 to 5000 nM | CN(C)C1CCN(C(=O)c2cc(-c3ncnc4[nH]ccc34)c[nH]2)C1 (centres unmarked) [Compound 50]
27 | 100 to 500 nM | < 100 nM | O=C(c1cc(-c2ncnc3[nH]ccc23)c[nH]1)N1CCCC1C(F)(F)F (centres unmarked) [Compound 53]

The next lines start with the compound.

Row | SMILES | Ki (JAK3) | Ki (JAK-2 enzyme)
28 | O=C(N[C@H](CO)c1cccc(Cl)c1)c1cc(-c2ncnc3[nH]ccc23)c[nH]1 [Compound 1] | < 100 nM | 
29 | c1nc(-c2ccsc2)c2cc[nH]c2n1 [Compound 2] | 100 to 500 nM | 100 to 500 nM
30 | Cn1cc(-c2ncnc3[nH]ccc23)cn1 [Compound 3] | 100 to 500 nM | 100 to 500 nM
31 | c1cc(-c2ncnc3[nH]ccc23)[nH]n1 [Compound 4] | 100 to 500 nM | 500 to 5000 nM
32 | CC(C)NC(=O)c1cc(-c2ncnc3[nH]ccc23)c[nH]1 [Compound 8] | 100 to 500 nM | < 100 nM
33 | CC(C)CNC(=O)c1cc(-c2ncnc3[nH]ccc23)c[nH]1 [Compound 9] | < 100 nM | < 100 nM
34 | O=C(NCC(F)F)c1cc(-c2ncnc3[nH]ccc23)c[nH]1 [Compound 10] | < 100 nM | < 100 nM
35 | O=C(NC1CCCC1)c1cc(-c2ncnc3[nH]ccc23)c[nH]1 [Compound 13] | < 100 nM | < 100 nM
36 | N#CCNC(=O)c1cc(-c2ncnc3[nH]ccc23)c[nH]1 [Compound 15] | < 100 nM | < 100 nM
37 | CCN(CCC#N)C(=O)c1cc(-c2ncnc3[nH]ccc23)c[nH]1 [Compound 16] | < 100 nM | < 100 nM
38 | CCCCN(CC#N)C(=O)c1cc(-c2ncnc3[nH]ccc23)c[nH]1 [Compound 19] | < 100 nM | < 100 nM
39 | CCCN(CC1CC1)C(=O)c1cc(-c2ncnc3[nH]ccc23)c[nH]1 [Compound 20] | < 100 nM | < 100 nM
40 | CN(CCC#N)C(=O)c1cc(-c2ncnc3[nH]ccc23)c[nH]1 [Compound 23] | < 100 nM | < 100 nM
41 | COCCN(CCOC)C(=O)c1cc(-c2ncnc3[nH]ccc23)c[nH]1 [Compound 25] | 100 to 500 nM | < 100 nM
42 | CCN(Cc1ccccc1)C(=O)c1cc(-c2ncnc3[nH]ccc23)c[nH]1 [Compound 30] | < 100 nM | < 100 nM
43 | CC(C)CC(=O)Nc1nc(-c2ncnc3[nH]ccc23)cs1 [Compound 31] | < 100 nM | < 100 nM
44 | O=C(CC1CCCC1)Nc1nc(-c2ncnc3[nH]ccc23)cs1 [Compound 32] | < 100 nM | < 100 nM
45 | CCC(C)n1cc(-c2ncnc3[nH]ccc23)cn1 (centres unmarked) [Compound 35] | < 100 nM | < 100 nM
46 | c1nc(-c2cnn(C3CCCC3)c2)c2cc[nH]c2n1 [Compound 36] | < 100 nM | < 100 nM
47 | CCC(CC)n1cc(-c2ncnc3[nH]ccc23)cn1 [Compound 39] | < 100 nM | < 100 nM
48 | CCN(CCO)C(=O)c1cc(-c2ncnc3[nH]ccc23)c[nH]1 [Compound 40] | 100 to 500 nM | < 100 nM
49 | CN(C)CCCN(C)C(=O)c1cc(-c2ncnc3[nH]ccc23)c[nH]1 [Compound 44] | 500 to 5000 nM | 500 to 5000 nM
50 | NC(=O)C1CCCN1C(=O)c1cc(-c2ncnc3[nH]ccc23)c[nH]1 (centres unmarked) [Compound 47] | 100 to 500 nM | 100 to 500 nM
51 | O=C(c1cc(-c2ncnc3[nH]ccc23)c[nH]1)N1CCCC(O)C1 (centres unmarked) [Compound 51] | 500 to 5000 nM | 100 to 500 nM
52 | N#CC1CCCN1C(=O)c1cc(-c2ncnc3[nH]ccc23)c[nH]1 (centres unmarked) [Compound 52] | 100 to 500 nM | < 100 nM
53 | CC1CCC(C)N1C(=O)c1cc(-c2ncnc3[nH]ccc23)c[nH]1 (centres unmarked) [Compound 54] | < 100 nM | < 100 nM
54 | CN(CC(F)(F)F)C(=O)c1cc(-c2ncnc3[nH]ccc23)c[nH]1 [Compound 55] | 100 to 500 nM | < 100 nM
55 | O=C(c1cc(-c2ncnc3[nH]ccc23)c[nH]1)N1CCC(O)C1 (centres unmarked) [Compound 56] | 500 to 5000 nM | 100 to 500 nM
56 | CC(C(=O)OC(C)(C)C)n1cc(-c2ncnc3[nH]ccc23)cn1 (centres unmarked) [Compound 95] |  | 100 to 500 nM
